Our source for the inhibition values is patent US10435399B2, “HDAC6 inhibitory heterocyclic compound” (TAKEDA PHARMACEUTICAL COMPANY LIMITED, priority 2017, dated 2019).

For the test, the target named is T1, HDAC6 enzyme (Homo sapiens, UniProt Q9UBN7).
T1 construct: transducing full length HDAC6 gene into Sf-9 insect cells; GST; purchased SignalChem; host or cells: Sf-9 insect cells
T1 sequence (Q9UBN7 1-1215): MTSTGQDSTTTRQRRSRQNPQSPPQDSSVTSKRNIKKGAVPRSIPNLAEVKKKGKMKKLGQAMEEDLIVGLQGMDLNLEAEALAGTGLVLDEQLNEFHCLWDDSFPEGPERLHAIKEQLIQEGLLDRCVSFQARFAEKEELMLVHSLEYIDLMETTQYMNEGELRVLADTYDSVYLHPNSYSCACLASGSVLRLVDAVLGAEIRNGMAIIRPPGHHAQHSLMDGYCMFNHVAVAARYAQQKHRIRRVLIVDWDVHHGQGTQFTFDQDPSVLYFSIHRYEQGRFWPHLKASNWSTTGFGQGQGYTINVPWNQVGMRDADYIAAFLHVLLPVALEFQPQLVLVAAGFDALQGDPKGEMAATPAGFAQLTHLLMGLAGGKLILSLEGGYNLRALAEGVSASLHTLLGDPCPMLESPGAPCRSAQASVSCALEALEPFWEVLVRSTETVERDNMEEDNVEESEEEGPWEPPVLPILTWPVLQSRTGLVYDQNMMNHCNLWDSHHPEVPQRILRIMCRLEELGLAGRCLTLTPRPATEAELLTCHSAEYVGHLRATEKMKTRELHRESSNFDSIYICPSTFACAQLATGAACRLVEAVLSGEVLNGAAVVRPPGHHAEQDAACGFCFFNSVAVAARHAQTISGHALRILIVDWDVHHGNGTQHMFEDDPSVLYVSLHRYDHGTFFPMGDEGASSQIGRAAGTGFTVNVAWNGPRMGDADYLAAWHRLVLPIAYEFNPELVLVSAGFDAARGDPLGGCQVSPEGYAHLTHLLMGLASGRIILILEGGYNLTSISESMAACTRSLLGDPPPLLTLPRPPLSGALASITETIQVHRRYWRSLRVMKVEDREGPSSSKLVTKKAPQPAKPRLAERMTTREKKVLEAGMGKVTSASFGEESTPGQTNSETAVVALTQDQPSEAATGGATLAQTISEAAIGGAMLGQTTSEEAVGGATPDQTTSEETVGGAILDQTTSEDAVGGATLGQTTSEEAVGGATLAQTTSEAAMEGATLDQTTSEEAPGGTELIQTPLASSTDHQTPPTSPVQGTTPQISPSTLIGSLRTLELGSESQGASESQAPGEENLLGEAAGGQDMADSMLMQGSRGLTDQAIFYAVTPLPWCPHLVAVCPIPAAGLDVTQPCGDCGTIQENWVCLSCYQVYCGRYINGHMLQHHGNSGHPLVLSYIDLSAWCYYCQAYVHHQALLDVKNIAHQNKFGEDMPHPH
Nature of the test: HDAC6 enzyme inhibitory activity (HDAC-Glo I/II Assay kit). The format is biochemical. The conditions noted are these: 10 μM; wells without enzyme = 100% inhibition; read-out: HDAC6 inhibitory rate (%) (10 μM). In a few lines:
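Full-length human HDAC6 (GST-purified, Sf-9 expressed) preincubated with compound 60 min at room temperature in Tris-HCl pH 7.5 buffer with MgCl2, KCl, NaCl, glutathione, Tween-20. HDAC-Glo I/II substrate-developer then added, 20 min room temperature, luminescence read. Inhibition relative to no-enzyme wells as 100%.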
`CCC(F)(F)C(=O)N[C@@H]1CCCC[C@H]1N1Cc2ccc(-c3nnc(C(F)F)o3)cc2C1=O` [Example 67, N-((1R,2R)-2-(6-(5-(difluoromethyl)-1,3,4-oxadiazol-2-yl)-1-oxo-1,3-dihydro-2H-isoindol-2-yl)cyclohexyl)-2,2-difluorobutanamide]: the inhibition at 10 µM is 100%. With `COC1(C(=O)N[C@@H]2CCCC[C@H]2N2Cc3ccc(-c4nnc(C(F)F)o4)cc3C2=O)CC1` [Example 68, N-((1R,2R)-2-(6-(5-(difluoromethyl)-1,3,4-oxadiazol-2-yl)-1-oxo-1,3-dihydro-2H-isoindol-2-yl)cyclohexyl)-1-methoxycyclopropanecarboxamide] the figure was 101%; with `O=C(N[C@@H]1CCCC[C@H]1N1Cc2ccc(-c3nnc(C(F)F)o3)cc2C1=O)C1CC1F` (stereo partly drawn) [Example 70, N-((1R,2R)-2-(6-(5-(difluoromethyl)-1,3,4-oxadiazol-2-yl)-1-oxo-1,3-dihydro-2H-isoindol-2-yl)cyclohexyl)-2-fluorocyclopropanecarboxamide], 100%.

In the case of `O=C(N[C@@H]1CCCC[C@H]1N1Cc2ccc(-c3nnc(C(F)F)o3)cc2C1=O)C1CC1C(F)F` (stereo partly drawn) [Example 71, 2-(difluoromethyl)-N-((1R,2R)-2-(6-(5-(difluoromethyl)-1,3,4-oxadiazol-2-yl)-1-oxo-1,3-dihydro-2H-isoindol-2-yl)cyclohexyl)cyclopropanecarboxamide (optical isomer)], the inhibition at 10 µM turned out to be 97%.

For `O=C(N[C@@H]1CCCC[C@H]1N1Cc2ccc(-c3nnc(C(F)F)o3)cc2C1=O)C1CC12CCC2` (stereo partly drawn) [Example 72, N-((1R,2R)-2-(6-(5-(difluoromethyl)-1,3,4-oxadiazol-2-yl)-1-oxo-1,3-dihydro-2H-isoindol-2-yl)cyclohexyl)spiro[2.3]hexane-1-carboxamide (optical isomer)], the inhibition at 10 µM turned out to be 97%. With `CC1CC1C(=O)N[C@@H]1CCCC[C@H]1N1Cc2ccc(-c3nnc(C(F)F)o3)cc2C1=O` (stereo partly drawn) [Example 73, N-((1R,2R)-2-(6-(5-(difluoromethyl)-1,3,4-oxadiazol-2-yl)-1-oxo-1,3-dihydro-2H-isoindol-2-yl)cyclohexyl)-2-methylcyclopropanecarboxamide] the figure was 100%; with `O=C(N[C@@H]1CCCC[C@H]1N1Cc2ccc(-c3nnc(C(F)F)o3)cc2C1=O)C1CC1(F)F` (stereo partly drawn) [Example 74, N-((1R,2R)-2-(6-(5-(difluoromethyl)-1,3,4-oxadiazol-2-yl)-1-oxo-1,3-dihydro-2H-isoindol-2-yl)cyclohexyl)-2,2-difluorocyclopropanecarboxamide (optical isomer)], 102%. `CC1(C)CC1C(=O)N[C@@H]1CCCC[C@H]1N1Cc2ccc(-c3nnc(C(F)F)o3)cc2C1=O` (stereo partly drawn) [Example 75, N-((1R,2R)-2-(6-(5-(difluoromethyl)-1,3,4-oxadiazol-2-yl)-1-oxo-1,3-dihydro-2H-isoindol-2-yl)cyclohexyl)-2,2-dimethylcyclopropanecarboxamide]: the inhibition at 10 µM was 101%.

For `O=C1c2cc(-c3nnc(C(F)F)o3)ccc2CN1[C@@H]1CCCC[C@H]1NC(=O)C1(O)CCC1` [Example 76, N-((1R,2R)-2-(6-(5-(difluoromethyl)-1,3,4-oxadiazol-2-yl)-1-oxo-1,3-dihydro-2H-isoindol-2-yl)cyclohexyl)-1-hydroxycyclobutanecarboxamide], the inhibition at 10 µM came out at 101%. The same measure for `O=C1c2cc(-c3nnc(C(F)F)o3)ccc2CN1[C@@H]1CCCC[C@H]1NC(=O)C1(F)CCC1` [Example 77, N-((1R,2R)-2-(6-(5-(difluoromethyl)-1,3,4-oxadiazol-2-yl)-1-oxo-1,3-dihydro-2H-isoindol-2-yl)cyclohexyl)-1-fluorocyclobutanecarboxamide]: 100%. As for `N#CC1(C(=O)N[C@@H]2CCCC[C@H]2N2Cc3ccc(-c4nnc(C(F)F)o4)cc3C2=O)CCC1` [Example 78, 1-cyano-N-((1R,2R)-2-(6-(5-(difluoromethyl)-1,3,4-oxadiazol-2-yl)-1-oxo-1,3-dihydro-2H-isoindol-2-yl)cyclohexyl)cyclobutanecarboxamide], the inhibition at 10 µM came out at 100%. The same measure for `O=C(N[C@@H]1CCCC[C@H]1N1Cc2ccc(-c3nnc(C(F)F)o3)cc2C1=O)C1CC2(CCC2)C1` [Example 79, N-((1R,2R)-2-(6-(5-(difluoromethyl)-1,3,4-oxadiazol-2-yl)-1-oxo-1,3-dihydro-2H-isoindol-2-yl)cyclohexyl)spiro[3.3]heptane-2-carboxamide]: 97%; for `O=C1c2cc(-c3nnc(C(F)F)o3)ccc2CN1[C@@H]1CCCC[C@H]1NC(=O)C12CC(C(F)(F)F)(C1)C2` [Example 80, N-((1R,2R)-2-(6-(5-(difluoromethyl)-1,3,4-oxadiazol-2-yl)-1-oxo-1,3-dihydro-2H-isoindol-2-yl)cyclohexyl)-3-(trifluoromethyl)bicyclo[1.1.1]pentane-1-carboxamide]: 101%; for `CC(C)(O)C(=O)N[C@@H]1CCCC[C@H]1N1Cc2ccc(-c3nnc(C(F)F)o3)cc2C1=O` [Example 81, N-((1R,2R)-2-(6-(5-(difluoromethyl)-1,3,4-oxadiazol-2-yl)-1-oxo-1,3-dihydro-2H-isoindol-2-yl)cyclohexyl)-2-hydroxy-2-methylpropanamide]: 101%. With `CC(C)(C#N)C(=O)N[C@@H]1CCCC[C@H]1N1Cc2ccc(-c3nnc(C(F)F)o3)cc2C1=O` [Example 82, 2-cyano-N-((1R,2R)-2-(6-(5-(difluoromethyl)-1,3,4-oxadiazol-2-yl)-1-oxo-1,3-dihydro-2H-isoindol-2-yl)cyclohexyl)-2-methylpropanamide], the inhibition at 10 µM was determined as 100%.

For the compound `CC(C)(O)CC(=O)N[C@@H]1CCCC[C@H]1N1Cc2ccc(-c3nnc(C(F)F)o3)cc2C1=O` [Example 83, N-((1R,2R)-2-(6-(5-(difluoromethyl)-1,3,4-oxadiazol-2-yl)-1-oxo-1,3-dihydro-2H-isoindol-2-yl)cyclohexyl)-3-hydroxy-3-methylbutanamide], the inhibition at 10 µM is 102%.

In the case of `CC(C)(C(=O)N[C@@H]1CCCC[C@H]1N1Cc2ccc(-c3nnc(C(F)F)o3)cc2C1=O)C(F)(F)F` [Example 84, N-((1R,2R)-2-(6-(5-(difluoromethyl)-1,3,4-oxadiazol-2-yl)-1-oxo-1,3-dihydro-2H-isoindol-2-yl)cyclohexyl)-3,3,3-trifluoro-2,2-dimethylpropanamide], the inhibition at 10 µM was 100%. With `COC(C)(C)C(=O)N[C@@H]1CCCC[C@H]1N1Cc2ccc(-c3nnc(C(F)F)o3)cc2C1=O` [Example 85, N-((1R,2R)-2-(6-(5-(difluoromethyl)-1,3,4-oxadiazol-2-yl)-1-oxo-1,3-dihydro-2H-isoindol-2-yl)cyclohexyl)-2-methoxy-2-methylpropanamide] the figure was 101%; with `N#CC1(CC(=O)N[C@@H]2CCCC[C@H]2N2Cc3ccc(-c4nnc(C(F)F)o4)cc3C2=O)CC1` [Example 86, 2-(1-cyanocyclopropyl)-N-((1R,2R)-2-(6-(5-(difluoromethyl)-1,3,4-oxadiazol-2-yl)-1-oxo-1,3-dihydro-2H-isoindol-2-yl)cyclohexyl)acetamide], 96%. With `O=C1c2cc(-c3nnc(C(F)F)o3)ccc2CN1[C@@H]1CCCC[C@H]1NC(=O)C1(c2ccccc2)CC1` [Example 87, N-((1R,2R)-2-(6-(5-(difluoromethyl)-1,3,4-oxadiazol-2-yl)-1-oxo-1,3-dihydro-2H-isoindol-2-yl)cyclohexyl)-1-phenylcyclopropanecarboxamide] the figure was 99%.

For `CC(C)(C(=O)N[C@@H]1CCCC[C@H]1N1Cc2ccc(-c3nnc(C(F)F)o3)cc2C1=O)c1ccccc1` [Example 88, N-((1R,2R)-2-(6-(5-(difluoromethyl)-1,3,4-oxadiazol-2-yl)-1-oxo-1,3-dihydro-2H-isoindol-2-yl)cyclohexyl)-2-methyl-2-phenylpropanamide], the inhibition at 10 µM worked out at 99%.
